Laboratory results published in EP0251126B1, “1,7-substituted heptyne-2-ones” (priority 1986, dated 1988).

Columns and labels:
[1] = biological target: postsynaptic muscarinic cholinergic receptors on bladder detrusor muscle (Cavia porcellus, UniProt Q8VH26); assay type: biochemical, guinea-pigs; settings: guinea pig bladder strips, carbachol as agonist
Experimental: (§1) Serial dilutions (1:10) in saline or water are made from the stock solution.
(§2) Serial dilutions (1:10) in saline or water are made from the stock solution. […] Serial dilutions (1:10) in water are made from the stock solution. Other solvents may be used when appropriate and will be specifically described in the experimental procedure. Appropriate volumes are then added to the baths in order to obtain the desired bath concentrations.
(§3) With each concentration step, the tissue contracts isometrically. The next concentration is added only after the preceding contraction has reached a steady value.
Three or four different concentrations of antagonist are studied in the same preparations.

[2] = biological target: postsynaptic muscarinic cholinergic receptors on intestinal (ileal) longitudinal smooth muscle (Cavia porcellus, UniProt Q8VH26); assay type: biochemical, guinea-pigs; settings: guinea pig ileum longitudinal muscle, carbachol as agonist
Sequence of postsynaptic muscarinic cholinergic receptors on intestinal (ileal) longitudinal smooth muscle (Q8VH26 entry or part of it): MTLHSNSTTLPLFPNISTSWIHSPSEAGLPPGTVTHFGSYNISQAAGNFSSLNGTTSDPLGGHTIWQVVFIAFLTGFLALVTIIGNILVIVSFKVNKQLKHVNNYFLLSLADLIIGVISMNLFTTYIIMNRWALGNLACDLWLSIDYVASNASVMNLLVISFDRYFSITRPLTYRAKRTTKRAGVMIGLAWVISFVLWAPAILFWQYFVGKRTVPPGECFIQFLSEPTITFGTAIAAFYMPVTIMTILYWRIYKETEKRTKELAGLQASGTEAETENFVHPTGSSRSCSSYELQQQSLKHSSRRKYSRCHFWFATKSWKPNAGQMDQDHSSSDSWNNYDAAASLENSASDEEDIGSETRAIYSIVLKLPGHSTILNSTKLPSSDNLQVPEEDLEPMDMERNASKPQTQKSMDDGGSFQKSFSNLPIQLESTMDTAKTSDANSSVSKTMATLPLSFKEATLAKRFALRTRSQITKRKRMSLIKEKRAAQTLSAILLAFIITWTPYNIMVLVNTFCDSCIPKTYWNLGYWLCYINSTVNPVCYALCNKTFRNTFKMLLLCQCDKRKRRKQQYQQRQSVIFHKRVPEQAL
Experimental: The cavity is opened and the small intestine is removed, with about 10 cm of the terminal ileum being discarded. […] The segments are preferentially taken from the aboral end of the ileum.
The preparations are allowed to recover for an additional 12 minutes before being used in experiments.
as §1, §2, §3
Three or four different concentrations of antagonist are studied in the same preparations. Responses are expressed relative to the maximum contraction elicited by carbachol in the absence of antagonist.

[3] = test system: bladder contraction strength (PvesP); assay type: in vivo, Guinea pigs; settings: T-1/2 of the compound compared with T-1/2 of oxybutynin
Description: To assess test compounds with a more intact model system, a method which more closely mimics the natural slow filling of the bladder is used.
This clinical CMG is produced by catheterizing the bladder so it may be filled, emptied and refilled with fluid while simultaneously measuring the internal bladder pressure (Pves). […] This allows the bladder to reach maximum capacity/pressure before sensory systems initiate the normal urge and micturition reflex patterns. We use a modification of this clinical test to determine duration of action of test compounds by repeated filling of the bladder following i.v. administration of the test compound. Peak pressure above the threshold pressure is the primary measure of action which can be inhibited by the test compounds and can be used to determine potency and duration of action in this anesthetized Guinea pig model. […]
Test drugs and reference compounds are normally prepared as a solution in normal saline, acidified or made basic as needed to get the compound into solution at the desired concentration. Drugs are delivered at selected mg/kg (calculated as free base) doses i.v. in a volume of approximately 0.5 to 0.8 ml. […]

Sequence of postsynaptic muscarinic cholinergic receptors on bladder detrusor muscle (Q8VH26 entry or part of it): as above

Compound	Bladder Kb [1]	half-lives of PvesP depression relative to oxybutynin [3] [times longer]	Ileum Kb [2]	further results
1-(6-Diethylaminohex-4-yn-2-one)-1-hydroxy-1,2,3,4-tetrahydronaphthalene N-cyclohexylsulfamate hydrate [Compound 11]				Kb [1]: 512 nM; Kb [2]: > 1000 nM
CCN(CC)CC#CCCC1(C(O)(c2ccccc2)C2CCCCC2)SCCCS1 (centres unmarked) [Compound 2, 1-Cyclohexyl-1-phenyl-1-hydroxy-7-diethylaminohept-5-yn-2-one bis (1,3-propylene)dithioketal hemioxalate]	enhance			
CCNCC#CCCC(=O)C(O)(c1ccccc1)C1CCCCC1 (centres unmarked) [Compound 10, 1-Cyclohexyl-1-hydroxy-phenyl-7-ethylamino-hept-5-yn-2-one hemifumarate, hydrate]		1.78		
CCN(CC)CC#CCC(=O)CC1(O)CCc2ccccc21.CCN(CC)CC#CCC(=O)CC1(O)CCc2ccccc21.O.O=C(O)C(=O)O.O=C(O)C(=O)O (centres unmarked) [Compound 21, 1-(6-N,N-Diethylaminohex-4-yn-2-one)-1-hydroxyindan oxalate semihydrate]	N.E.		N.E.	
CCN(CC)CC#CCCC(=O)C(C)(O)c1ccccc1.O=C(O)C(=O)O (centres unmarked) [Compound 7, 2-Hydroxy-2-phenyl-8-(N,N-diethylamino)oct-6-yn-3-one oxalate]			NC 10µM	
CN(C)CC#CCCC(=O)C(O)(c1ccccc1)C1CCCCC1 (centres unmarked) [Compound 18, 1-Cyclohexyl-1-hydroxy-1-phenyl-7-dimethylaminohept-5-yn-2-one]		2.65		
